Test results published in paper PMC9979339 (ACS Omega, 2023).
“Also recorded” adds a separate entry of the source.

Experiments:
[1] = system: scopolamine-induced memory impairment in mice; assay: Novel object recognition test; type: in vivo
[2] = system: scopolamine-induced memory impairment in mice; assay: Y-maze spontaneous alternation, scopolamine-induced amnesia; type: in vivo
[3] = target: equine butyrylcholinesterase (Equus caballus, UniProt P81908); assay: BuChE inhibition, Ellman's colorimetric method; type: biochemical; conditions: for inhibition at 31.25 µM / inhibition at 62.5 µM / inhibition at 125 µM / inhibition at 250 µM / inhibition at 500 µM / inhibition at 1000 µM: read-out: % BuChE inhibition mean ± SEM; for IC50: IC50 BuChE inhibition, in vitro
[4] = DPPH free radical scavenging assay; type: biochemical; conditions: for % DPPH scavenging mean ± SEM: n = 3; for IC50: read-out: IC50 DPPH scavenging
ABTS scavenging assay = type: biochemical; conditions: for % ABTS scavenging mean ± SEM: n = 3; for IC50: read-out: IC50 ABTS scavenging
[5] = target: electric eel acetylcholinesterase (type-VI-S) (Electrophorus electricus, UniProt O42275); assay: AChE inhibition, Ellman's colorimetric method; type: biochemical; conditions: for IC50: IC50 AChE inhibition, in vitro; for inhibition at 31.25 µM: read-out: % AChE inhibition mean ± SEM, 31.25 μM, n = 3; for inhibition at 62.5 µM: read-out: % AChE inhibition mean ± SEM, 62.5 μM, n = 3; for inhibition at 125 µM: read-out: % AChE inhibition mean ± SEM, 125 μM, n = 3; for inhibition at 250 µM: read-out: % AChE inhibition mean ± SEM, 250 μM, n = 3; for inhibition at 500 µM: read-out: % AChE inhibition mean ± SEM, 500 μM, n = 3; for inhibition at 1000 µM: read-out: % AChE inhibition mean ± SEM, 1000 μM, n = 3
[6] = 1, 10 and 30 mg/kg plus scopolamine 1 mg/kg
[7] = 30 mg/kg plus scopolamine 1 mg/kg
[8] = 10 and 30 mg/kg plus scopolamine 1 mg/kg

equine butyrylcholinesterase, sequence (P81908 whole entry): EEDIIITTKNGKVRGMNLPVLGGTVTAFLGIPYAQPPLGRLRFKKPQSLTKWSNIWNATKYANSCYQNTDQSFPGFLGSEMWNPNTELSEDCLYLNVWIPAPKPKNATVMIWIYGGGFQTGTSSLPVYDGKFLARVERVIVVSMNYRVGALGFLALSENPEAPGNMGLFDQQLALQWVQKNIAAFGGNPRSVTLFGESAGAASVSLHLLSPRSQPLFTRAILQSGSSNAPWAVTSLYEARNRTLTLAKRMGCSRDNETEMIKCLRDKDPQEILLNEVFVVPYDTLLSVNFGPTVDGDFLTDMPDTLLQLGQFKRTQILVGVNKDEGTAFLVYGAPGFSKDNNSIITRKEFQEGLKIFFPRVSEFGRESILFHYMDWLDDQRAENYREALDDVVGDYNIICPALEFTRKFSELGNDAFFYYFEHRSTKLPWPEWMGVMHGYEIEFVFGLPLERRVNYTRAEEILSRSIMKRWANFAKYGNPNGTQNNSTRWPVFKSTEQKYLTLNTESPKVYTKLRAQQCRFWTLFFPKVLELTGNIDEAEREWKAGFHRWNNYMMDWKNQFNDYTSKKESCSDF
electric eel acetylcholinesterase (type-VI-S), sequence (O42275 24-633): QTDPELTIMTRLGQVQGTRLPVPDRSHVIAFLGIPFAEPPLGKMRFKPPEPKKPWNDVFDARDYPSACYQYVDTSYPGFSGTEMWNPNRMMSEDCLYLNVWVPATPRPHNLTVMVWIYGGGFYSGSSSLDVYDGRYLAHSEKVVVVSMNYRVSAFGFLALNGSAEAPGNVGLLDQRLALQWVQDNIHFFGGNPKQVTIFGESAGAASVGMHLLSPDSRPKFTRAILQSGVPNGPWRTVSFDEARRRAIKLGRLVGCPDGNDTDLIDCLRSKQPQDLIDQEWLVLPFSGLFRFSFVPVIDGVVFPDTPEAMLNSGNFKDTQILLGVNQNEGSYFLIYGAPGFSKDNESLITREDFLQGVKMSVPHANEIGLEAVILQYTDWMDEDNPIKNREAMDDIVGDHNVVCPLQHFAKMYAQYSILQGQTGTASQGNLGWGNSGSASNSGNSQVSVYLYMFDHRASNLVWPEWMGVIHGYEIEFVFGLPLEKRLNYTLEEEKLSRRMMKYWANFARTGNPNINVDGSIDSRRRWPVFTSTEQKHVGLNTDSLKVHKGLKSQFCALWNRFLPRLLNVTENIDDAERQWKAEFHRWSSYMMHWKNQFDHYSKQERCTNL

SMILES	inhibition at 31.25 µM [3]	inhibition at 62.5 µM [3]	inhibition at 125 µM [3]	inhibition at 250 µM [3]	inhibition at 500 µM [3]	inhibition at 1000 µM [3]	% DPPH scavenging mean ± SEM ([4]; 31.25 μM)	% DPPH scavenging mean ± SEM ([4]; 125 μM)	% DPPH scavenging mean ± SEM ([4]; 250 μM)	% DPPH scavenging mean ± SEM ([4]; 500 μM)	% DPPH scavenging mean ± SEM ([4]; 1000 μM)	IC50 [4]	% ABTS scavenging mean ± SEM (ABTS scavenging assay; 31.25 μM)	% ABTS scavenging mean ± SEM (ABTS scavenging assay; 62.5 μM)	% ABTS scavenging mean ± SEM (ABTS scavenging assay; 125 μM)	% ABTS scavenging mean ± SEM (ABTS scavenging assay; 250 μM)	% ABTS scavenging mean ± SEM (ABTS scavenging assay; 500 μM)	% ABTS scavenging mean ± SEM (ABTS scavenging assay; 1000 μM)	IC50 (ABTS scavenging assay)	IC50 [5]	other results
COc1cc2c(cc1OC)C(=O)C(CC1CCN(Cc3ccccc3)CC1)C2 (stereo not shown) [donepezil, reference compound]	69.31 ± 0.06%	74.42 ± 0.06%	78.39 ± 0.06%	82.49 ± 0.08%	86.42 ± 0.11%	91.29 ± 0.06%	–	–	–	–	–	–	–	–	–	–	–	–	–	–	NORT short-term memory: exploration of novel vs familiar object in test phase ([1]; donepezil 2 mg/kg plus scopolamine 1 mg/kg): statistically not significant; Y-maze spontaneous alteration (% alteration) ([2]; donepezil 2 mg/kg plus scopolamine, n = 8): 83.83 ± 2.64
O=C1c2ccccc2C(=O)N1c1ccc(Br)cc1 [compound 2, 2-(4-bromophenyl)isoindoline-1,3-dione]	45.45 ± 0.22%	51.34 ± 0.03%	56.28 ± 0.03%	64.36 ± 0.03%	71.25 ± 0.12%	78.2 ± 0.07%	15.21 ± 0.19%	40.16 ± 0.14%	47.85 ± 0.17%	56.65 ± 0.30%	69.87 ± 0.23%	340 µM	10.47 ± 0.25%	22.12 ± 0.32%	34.11 ± 1.21%	41.72 ± 0.81%	57.76 ± 0.75%	62.57 ± 0.50%	350 µM	140 µM	NORT short-term memory: exploration of novel vs familiar object in test phase [1, 6]: did not exert a significant effect; inhibition at 31.25 µM [5]: 38.36 ± 0.22%; inhibition at 62.5 µM [5]: 41.35 ± 0.13%; inhibition at 125 µM [5]: 47.14 ± 0.09%; inhibition at 250 µM [5]: 54.33 ± 0.22%; inhibition at 500 µM [5]: 61.1 ± 1.95%; inhibition at 1000 µM [5]: 66.7 ± 5.14%; IC50 [3]: 50 µM
O=C1O[C@H]([C@@H](O)CO)C(O)=C1O [ascorbic acid, reference compound]	–	–	–	–	–	–	29.20 ± 1.03%	52.56 ± 0.69%	65.19 ± 0.29%	74.44 ± 0.48%	85.08 ± 0.32%	61 µM	35.27 ± 0.67%	44.58 ± 1.11%	51.89 ± 0.59%	63.11 ± 1.22%	73.22 ± 0.21%	82.14 ± 0.19%	125 µM	–	% DPPH scavenging mean ± SEM ([4]; 62.5 μM): 47.65 ± 0.2a %
O=C1c2ccccc2C(=O)N1c1ccc(C(F)(F)F)cc1 [compound 1, 2-(4-(trifluoromethyl)phenyl)isoindoline-1,3-dione]	41.39 ± 0.07%	47.29 ± 0.12%	54.29 ± 0.19%	61.76 ± 0.49%	67.4 ± 0.89%	75.4 ± 1.39%	30.21 ± 0.17%	52.16 ± 0.15%	67.85 ± 0.18%	76.65 ± 0.30%	85.87 ± 0.23%	105 µM	11.47 ± 0.54%	28.21 ± 0.32%	42.10 ± 1.11%	49.72 ± 0.72%	66.65 ± 0.61%	70.55 ± 0.32%	205 µM	10 µM	NORT long-term memory: % discrimination index [1, 7]: significantly higher; NORT short-term memory: exploration of novel vs familiar object in test phase [1, 6]: statistically not significant; NORT long-term memory: % discrimination index [1, 8]: significantly higher; NORT short-term memory: % discrimination index vs scopolamine alone [1, 8]: significantly greater; also recorded: significantly higher; Y-maze spontaneous alternation vs scopolamine group ([2]; 10 and 30 mg/kg plus scopolamine): significant increase; inhibition at 31.25 µM [5]: 55.68 ± 0.52%; inhibition at 62.5 µM [5]: 61.77 ± 0.49%; inhibition at 125 µM [5]: 77.4 ± 0.9%; inhibition at 250 µM [5]: 84.4 ± 1.39%; inhibition at 500 µM [5]: 81.44 ± 0.29%; inhibition at 1000 µM [5]: 98.51 ± 0.65%; IC50 [3]: 80 µM
Cc1ccc(N2C(=O)c3ccccc3C2=O)c(C)c1 [compound 3, 2-(2,4-dimethylphenyl)isoindoline-1,3-dione]	59.49 ± 0.11%	63.41 ± 0.14%	69.37 ± 0.02%	75.65 ± 0.03%	82.4 ± 0.06%	87.29 ± 0.03%	25.21 ± 0.15%	40.16 ± 0.15%	55.85 ± 0.18%	77.65 ± 0.31%	80.87 ± 0.25%	150 µM	18.47 ± 0.83%	35.22 ± 0.50%	46.11 ± 1.21%	54.72 ± 0.80%	68.76 ± 0.72%	73.57 ± 0.41%	220 µM	18 µM	NORT short-term memory: % discrimination index vs scopolamine alone [1, 7]: significantly higher; NORT long-term memory: % discrimination index [1, 8]: significantly higher; % AChE inhibition mean ± SEM ([5]; 1000 μM, n = 3): 95.24 ± 0.12%; inhibition at 31.25 µM [5]: 65.2 ± 0.75%; inhibition at 62.5 µM [5]: 52.5 ± 0.92%; inhibition at 125 µM [5]: 77.32 ± 0.21%; inhibition at 250 µM [5]: 84.18 ± 0.1%; inhibition at 500 µM [5]: 91.47 ± 0.26%; inhibition at 1000 µM [5]: 95.7 ± 0.12%; IC50 [3]: 11 µM
